Experimental findings from ChEMBL document CHEMBL1833803, “Discovery of 1-amino-5H-pyrido[4,3-b]indol-4-carboxamide inhibitors of Janus kinase 2 (JAK2) for the treatment of myeloproliferative disorders” (J Med Chem, 2011) are described below.

One data set deals with CYP3A4 (Homo sapiens, UniProt P08684). As to the kind of experiment: Inhibition of CYP3A4 at 10 uM. In kind it is ADME.
Data set [1] addresses T1, Tyrosine-protein kinase JAK3 (Homo sapiens, UniProt P52333).
T1 sequence (P52333 whole entry): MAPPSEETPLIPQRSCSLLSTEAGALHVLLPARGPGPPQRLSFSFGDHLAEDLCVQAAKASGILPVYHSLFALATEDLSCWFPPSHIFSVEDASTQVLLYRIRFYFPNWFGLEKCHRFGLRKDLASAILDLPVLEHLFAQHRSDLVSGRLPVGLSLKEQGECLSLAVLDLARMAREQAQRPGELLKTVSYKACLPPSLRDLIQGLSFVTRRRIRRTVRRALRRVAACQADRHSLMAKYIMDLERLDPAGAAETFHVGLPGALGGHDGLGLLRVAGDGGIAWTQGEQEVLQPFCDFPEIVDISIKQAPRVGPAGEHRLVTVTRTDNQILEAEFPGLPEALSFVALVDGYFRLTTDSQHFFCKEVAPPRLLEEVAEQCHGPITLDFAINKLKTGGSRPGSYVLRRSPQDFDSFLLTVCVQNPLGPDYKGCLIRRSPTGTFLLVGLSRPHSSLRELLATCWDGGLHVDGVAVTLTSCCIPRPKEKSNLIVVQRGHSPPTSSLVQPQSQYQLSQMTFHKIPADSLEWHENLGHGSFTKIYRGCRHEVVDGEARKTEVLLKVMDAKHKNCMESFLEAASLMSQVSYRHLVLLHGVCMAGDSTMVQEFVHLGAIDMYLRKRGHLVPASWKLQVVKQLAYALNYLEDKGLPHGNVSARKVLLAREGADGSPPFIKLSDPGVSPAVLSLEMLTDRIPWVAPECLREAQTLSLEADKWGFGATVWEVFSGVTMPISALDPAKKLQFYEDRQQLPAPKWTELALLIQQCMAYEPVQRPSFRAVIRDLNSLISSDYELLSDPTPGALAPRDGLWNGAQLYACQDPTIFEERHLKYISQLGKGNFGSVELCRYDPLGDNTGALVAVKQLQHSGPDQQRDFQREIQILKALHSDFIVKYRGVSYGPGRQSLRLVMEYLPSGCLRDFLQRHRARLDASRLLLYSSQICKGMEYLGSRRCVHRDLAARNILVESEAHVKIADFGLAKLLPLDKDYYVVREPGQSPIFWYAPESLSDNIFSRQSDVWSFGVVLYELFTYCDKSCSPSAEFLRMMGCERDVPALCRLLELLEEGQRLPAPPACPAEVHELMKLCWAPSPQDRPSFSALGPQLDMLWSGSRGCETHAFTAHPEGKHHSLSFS
As to the kind of experiment: Inhibition of JAK3 using biotin-EQEDEPEGDYFEWLE- NH2 as substrate.

Data set [2] can be described thus: Half life in rat at 1 mg/kg, iv. In kind it is ADME, organism-based. Set-up: dose 1 mg/kg, route intravenous. The following applies: in vivo.
Another data set concerns the target CYP2C9 (Homo sapiens, UniProt P11712). Kind of data set: Inhibition of CYP2C9 at 10 uM. The class given is ADME.
Data set [3] can be described thus: Selectivity ratio of IC50 for JAK3 to IC50 for JAK2.
Data set [4] is described as follows: Clearance in rat at 1 mg/kg, iv. The class given is ADME, organism-based. Set-up: dose 1 mg/kg, route intravenous. The following applies: in vivo.
Data set [5] has as its target Voltage-gated inwardly rectifying potassium channel KCNH2 (Homo sapiens, UniProt Q12809). Kind of data set: Inhibition of human hERG. In general terms: The hERG channel carries a current that helps repolarise heart muscle cells.
Data set [6] concerns the target T2, Tyrosine-protein kinase JAK2 (Homo sapiens, UniProt O60674). Kind of data set: Inhibition of JAK2-mediated STAT5 phosphorylation in human HEL 92.1.7 irf1-bla cells. In kind it is cell-based.
The target of data set [7] is T2, Tyrosine-protein kinase JAK2. Kind of data set: Inhibition of JAK2 using biotin-EQEDEPEGDYFEWLE- NH2 as substrate.
Data set [8] in a line: Metabolic stability in rat hepatocytes assessed as half life. The class given is ADME, cell-based, Liver, Hepatocyte.
Data set [9] can be described thus: Bioavailability in rat at 1 mg/kg, iv. In kind it is ADME, organism-based. The following applies: in vivo.
Data set [10] can be described thus: Lipophilicity, log D of the compound at pH 7.4. The class given is physicochemical. The following applies: buffer.
Data set [11] deals with T2, Tyrosine-protein kinase JAK2. As to the kind of experiment: Inhibition of JAK2.
A short description of data set [12]: Oral bioavailability in rat at 2 mg/kg. The class given is ADME, organism-based. The following applies: in vivo.
In data set [13] the target is T1, Tyrosine-protein kinase JAK3. As to the kind of experiment: Inhibition of JAK3.
Data set [14] is described as follows: Plasma clearance in rat at 1 mg/kg, iv and 2 mg/kg, po. In kind it is ADME, organism-based.

T2 sequence (O60674 whole entry): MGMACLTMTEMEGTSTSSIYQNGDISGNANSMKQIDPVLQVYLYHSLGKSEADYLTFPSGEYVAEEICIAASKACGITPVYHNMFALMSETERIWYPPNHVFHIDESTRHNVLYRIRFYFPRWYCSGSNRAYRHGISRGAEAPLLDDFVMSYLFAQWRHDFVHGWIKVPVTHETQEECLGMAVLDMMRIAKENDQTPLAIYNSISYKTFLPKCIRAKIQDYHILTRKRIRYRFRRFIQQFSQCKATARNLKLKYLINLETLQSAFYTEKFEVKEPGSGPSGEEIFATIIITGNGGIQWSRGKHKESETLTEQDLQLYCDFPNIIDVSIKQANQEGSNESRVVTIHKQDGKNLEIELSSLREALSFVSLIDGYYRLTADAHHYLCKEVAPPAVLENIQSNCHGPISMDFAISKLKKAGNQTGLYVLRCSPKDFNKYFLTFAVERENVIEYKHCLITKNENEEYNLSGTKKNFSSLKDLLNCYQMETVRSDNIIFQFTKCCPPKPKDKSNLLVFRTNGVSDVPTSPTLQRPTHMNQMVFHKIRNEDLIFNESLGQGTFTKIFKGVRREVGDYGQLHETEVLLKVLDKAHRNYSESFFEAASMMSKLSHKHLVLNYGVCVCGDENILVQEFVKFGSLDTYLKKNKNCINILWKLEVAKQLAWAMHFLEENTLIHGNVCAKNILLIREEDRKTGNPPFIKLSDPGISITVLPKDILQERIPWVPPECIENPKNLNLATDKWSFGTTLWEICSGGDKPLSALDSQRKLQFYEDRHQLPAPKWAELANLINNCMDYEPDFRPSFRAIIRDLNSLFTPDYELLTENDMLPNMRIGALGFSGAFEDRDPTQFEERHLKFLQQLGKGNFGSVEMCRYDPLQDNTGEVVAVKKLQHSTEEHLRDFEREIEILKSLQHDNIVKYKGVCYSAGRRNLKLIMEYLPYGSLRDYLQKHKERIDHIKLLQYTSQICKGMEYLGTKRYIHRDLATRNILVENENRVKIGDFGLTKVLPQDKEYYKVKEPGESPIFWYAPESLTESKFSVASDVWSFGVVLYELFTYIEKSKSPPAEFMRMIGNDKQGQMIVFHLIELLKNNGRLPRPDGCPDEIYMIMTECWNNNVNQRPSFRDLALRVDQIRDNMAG
Sequence of CYP3A4 (P08684 whole entry): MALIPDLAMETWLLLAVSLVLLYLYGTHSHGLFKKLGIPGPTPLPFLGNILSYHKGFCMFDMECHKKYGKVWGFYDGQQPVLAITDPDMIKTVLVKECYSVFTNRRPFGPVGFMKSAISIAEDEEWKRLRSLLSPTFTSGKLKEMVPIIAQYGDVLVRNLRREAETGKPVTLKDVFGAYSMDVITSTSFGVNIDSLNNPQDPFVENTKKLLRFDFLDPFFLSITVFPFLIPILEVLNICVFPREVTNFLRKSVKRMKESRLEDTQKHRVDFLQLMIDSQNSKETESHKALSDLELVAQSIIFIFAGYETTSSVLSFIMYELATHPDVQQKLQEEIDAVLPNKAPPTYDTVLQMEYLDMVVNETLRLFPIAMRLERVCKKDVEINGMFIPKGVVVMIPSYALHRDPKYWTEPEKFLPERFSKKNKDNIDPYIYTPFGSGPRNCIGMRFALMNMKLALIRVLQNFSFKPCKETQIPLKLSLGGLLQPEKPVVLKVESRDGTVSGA
Sequence of CYP2C9 (P11712 whole entry): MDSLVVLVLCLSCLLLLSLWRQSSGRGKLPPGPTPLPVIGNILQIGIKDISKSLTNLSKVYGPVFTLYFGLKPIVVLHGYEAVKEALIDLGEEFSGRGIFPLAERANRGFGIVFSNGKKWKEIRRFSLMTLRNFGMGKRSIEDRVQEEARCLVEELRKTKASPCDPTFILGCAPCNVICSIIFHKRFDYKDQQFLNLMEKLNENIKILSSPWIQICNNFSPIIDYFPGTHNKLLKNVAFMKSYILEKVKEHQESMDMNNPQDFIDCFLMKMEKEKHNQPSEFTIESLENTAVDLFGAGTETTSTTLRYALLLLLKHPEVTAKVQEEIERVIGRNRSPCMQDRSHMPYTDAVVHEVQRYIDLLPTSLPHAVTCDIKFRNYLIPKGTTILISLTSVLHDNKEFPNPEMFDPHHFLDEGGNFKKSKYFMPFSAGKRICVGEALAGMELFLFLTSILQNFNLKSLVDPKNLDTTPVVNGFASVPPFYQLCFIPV
Sequence of Voltage-gated inwardly rectifying potassium channel KCNH2 (Q12809 whole entry): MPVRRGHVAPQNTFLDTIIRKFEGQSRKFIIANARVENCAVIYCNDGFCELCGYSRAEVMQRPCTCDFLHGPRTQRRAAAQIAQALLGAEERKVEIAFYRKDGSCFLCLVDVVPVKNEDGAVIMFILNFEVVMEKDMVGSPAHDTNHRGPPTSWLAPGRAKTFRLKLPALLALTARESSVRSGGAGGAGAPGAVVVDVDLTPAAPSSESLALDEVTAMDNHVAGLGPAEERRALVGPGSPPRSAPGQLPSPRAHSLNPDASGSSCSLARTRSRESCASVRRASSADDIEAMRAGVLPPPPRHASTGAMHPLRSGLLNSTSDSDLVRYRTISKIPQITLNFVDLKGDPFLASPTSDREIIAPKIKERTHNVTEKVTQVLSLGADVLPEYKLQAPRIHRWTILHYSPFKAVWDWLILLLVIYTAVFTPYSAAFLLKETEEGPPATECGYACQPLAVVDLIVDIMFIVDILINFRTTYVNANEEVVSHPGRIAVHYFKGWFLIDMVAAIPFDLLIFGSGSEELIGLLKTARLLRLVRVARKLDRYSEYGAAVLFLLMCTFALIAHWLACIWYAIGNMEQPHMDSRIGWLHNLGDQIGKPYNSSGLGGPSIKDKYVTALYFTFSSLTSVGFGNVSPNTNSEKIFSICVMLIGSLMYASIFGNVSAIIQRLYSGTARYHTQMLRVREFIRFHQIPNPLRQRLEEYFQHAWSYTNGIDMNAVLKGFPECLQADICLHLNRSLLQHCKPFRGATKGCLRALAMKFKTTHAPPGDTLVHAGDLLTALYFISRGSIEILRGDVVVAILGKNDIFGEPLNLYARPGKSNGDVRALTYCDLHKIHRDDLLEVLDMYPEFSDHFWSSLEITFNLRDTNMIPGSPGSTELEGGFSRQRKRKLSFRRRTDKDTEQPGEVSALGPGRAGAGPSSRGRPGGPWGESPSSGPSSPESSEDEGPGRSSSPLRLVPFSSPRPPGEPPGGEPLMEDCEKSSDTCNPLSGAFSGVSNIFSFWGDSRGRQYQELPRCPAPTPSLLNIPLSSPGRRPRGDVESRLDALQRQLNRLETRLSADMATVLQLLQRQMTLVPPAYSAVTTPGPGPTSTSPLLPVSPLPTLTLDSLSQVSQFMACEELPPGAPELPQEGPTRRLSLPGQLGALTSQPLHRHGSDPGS

As a reminder, the inhibition is the drop in the measured response relative to a control, in per cent. A high value points to strong suppression. The term IC50 denotes the concentration that inhibits the measured activity by half. Read a high IC50 as a need for much substance. By half-life is commonly meant the time in which the quantity being followed falls by half. On to `Cn1cc(-c2ccc3c(c2)[nH]c2c(C(N)=O)cnc(NC(C4CC4)C4CC4)c23)cn1`, for which the inhibition at 10 µM at CYP3A4 is 62%; against CYP2C9 it was 80%. In addition, the IC50 was 280 nM in [1], 1700 nM in [5], 130 nM in [6] and 2 nM in data set [7]. Besides, in data set [2], the half-life was 3.2 h. Further, in [3], the Ratio IC50 was above 50. In data set [4], this compound gave a clearance of 22 mL/min/kg.
In the case of `C[C@H](Nc1ncc(C(N)=O)c2[nH]c3cc(-c4cnn(C)c4)ccc3c12)C1CC1`, the half-maximal inhibitory concentration (IC50) came out at 140 nM in [1], 14 nM in data set [6] and 1 nM in data set [7]. Further, the half-life in data set [2] was 1 h; in data set [8], 1.02 h. In [3], the Ratio IC50 is above 50. The compound also came in with a clearance in data set [4] of 44 mL/min/kg.
A word on the bioavailability: it is dose-corrected exposure relative to a reference, in per cent. A lower bioavailability goes with poor availability. On to `Cn1cc(-c2ccc3c(c2)[nH]c2c(C(N)=O)cnc(N[C@H](C4CC4)C(F)(F)F)c23)cn1`, for which the inhibition at 10 µM at CYP3A4 was 48%; at CYP2C9, 66%. The IC50 in data set [1] amounted to 230 nM; in [6], 41 nM; in [7], 0.4 nM. In data set [2], this compound showed a half-life of 4.1 h. In addition, in data set [4], the clearance is 14 mL/min/kg. This compound also returned a bioavailability in [9] of 65%.
The term logD denotes lipophilicity at a set pH, counting ionised and neutral species. Low readings indicate lower lipophilicity, high ones higher lipophilicity. For the compound `O=c1[nH]ccc2c1c1cc(F)ccc1n2-c1ccccc1`, in data set [10], the logD worked out at 4.3. The Ratio IC50 in data set [3] came to 0.7. Besides, the half-maximal inhibitory concentration (IC50) in data set [11] amounted to 1100 nM; in [13], 720 nM. This compound came in with a bioavailability in data set [12] of 89%. In addition, in [14], the clearance came to 13 mL/min/kg.
